Experimental data: patent publication US8614235B2, “CAI-based systems and methods for the localized treatment of ocular and other diseases” (RFE Pharma LLC, priority 2004, dated 2013)

Experiments:
[1] = patients; cited from earlier work
neovascularization = experiment: Contemplated clinical cases, local ocular CAI against neovascularization; type: in vivo
From the text: The following contemplated clinical cases of angiogenesis are presented as examples of methods of treatment and not as limitations. Other illustrations of treating systemic or localized angiogenesis are not presented, since the principles involved are similar, and will be apparent to the skilled reader based upon review of an individual's clinical manifestation and the preferred embodiments of the inventive compositions.

[2] = in vivo; cited from earlier work
[3] = cited from earlier work
[4] = single 5 mg peribulbar injection in humans; cited from earlier work

Row | SMILES | plasma concentrations associated with unacceptable toxicity [1] | neovascular regression (neovascularization; Example 9, proliferative diabetic retinopathy, intravitreal 50 mcg) | neovascular regression (neovascularization; Example 10, subfoveal membrane, intravitreal 200 mcg then periocular sustained release solution) | serum half-life [2] | toxic effects observed in clinical studies ([3]; systemic oral dosing, doses required for effective circulating levels) | serious side effect of clinical use by systemic administration ([3]; two cases described (Berlin et al. 2002)) | dexamethasone detected in the vitreous cavity [4]
1 | NC(=O)c1nnn(Cc2cc(Cl)c(C(=O)c3ccc(Cl)cc3)c(Cl)c2)c1N [CAI] | above 100 micromolar | some neovascular regression | neovascular regression occurs | 111 h | cerebellar ataxia, peripheral neuropathy and exacerbation of depression | loss of vision | –
2 | C[C@@H]1C[C@H]2[C@@H]3CCC4=CC(=O)C=C[C@]4(C)[C@@]3(F)[C@@H](O)C[C@]2(C)[C@@]1(O)C(=O)CO [Dexamethasone] | – | – | – | – | – | – | 13 ng/mL
